Key:
[1] = tested on: OL precursor cells; assay: Kainate-induced excitotoxicity in OL precursor cultures (trypan blue cell viability); assay type: cell-based, rat; conditions: 300 μM kainate; for concentration giving significant reduction of kainate-induced cell death: cell survival assessed 24 hr later
Experimental: Primary oligodendrocyte precursor cells were isolated from mixed glial cultures of the forebrains of newborn Sprague-Dawley rats using a selective detachment procedure as described in detail elsewhere (McCarthy and de Vellis, 1980; Back et al., 1998), and further purified by differential adhesion (Back et al., 1998). Precursor cells were maintained in a chemically-defined medium (CDM) supplemented with recombinant human platelet derived growth factor-AA (PDGF, 10 ng/ml) and basic fibroblast growth factor (bFGF, 10 ng/ml). The CDM was Dulbecco Modified Eagle's Medium (DMEM) containing D-glucose (25 mM), L-glutamine (4 mM), sodium pyruvate (1 mM), human apo-transferrin (50 μg/ml), bovine pancreatic insulin (5 μg/ml), sodium selenium (30 nM), hydrocortisone (10 nM), D-biotin (10 nM), and bovine serum albumin (BSA, 1 mg/ml). All chemicals were from Sigma. Precursor cells were maintained in the presence of growth factors (PDGF+bFGF) by refeeding with fresh medium every 48 hr for 7 days, to promote cell proliferation and prevent differentiation (Bogler et al., 1990). Experiments were performed with cultures maintained in CDM without the supplemental growth factors. These cultures were routinely characterized by immunochemical detection of cell-specific markers as described before (Back et al., 1998). Cultures at the beginning of experiments usually consisted of approximately 90% A2B5^+ oligodendrocyte precursors and less than 5% glial fibrillary acidic protein (GFAP)-positive astrocytes. Cells were plated on poly-DL-ornithine-coated 24-well plates for cell viability assays and on coated glass coverslips for immunocytochemistry, proliferation studies, and lineage analysis. Kainic acid (Sigma-RBI) were first dissolved in 0.1N HCl, and cyclothiazide (Sigma) in 0.1N NaOH, then added to culture medium to the desired final concentration. The pH of the culture media was maintained at 7.4. Topiramate (RWJ Pharmaceutical Research Institute) and NBQX (Sigma-RBI) were directly dissolved in culture medium and applied 10 min prior to exposure of the cells to kainate or oxygen-glucose deprivation (OGD). Following exposure to kainate or OGD for 24 hr, cell death was quantitatively assessed using the trypan blue exclusion method (Perry et al., 1997). Cells in 5-7 adjacent fields (×200) per well were counted to determine cell survival. At least 1000 cells per condition were counted in control cultures. The mean±SEM values for each experimental group were obtained from at least three separate experiments, and each was performed in triplicate. […] OGD has been previously shown to cause non-NMDA receptor-mediated ischemic cell death in a similar culture model (Fern and Moller, 2000). […] Cell survival was assessed 24 hr later.

[2] = tested on: P7 rat pups; assay: Hypoxia/ischemia (unilateral carotid ligation followed by hypoxia, 6% O2 for one hour) selective white matter injury model; assay type: in vivo
Text: The methods used in this example are described in Follett et al. (2000) J. Neurosci. 20:9235-9241, incorporated by reference herein.
Because the white matter of premature infants at high risk for hypoxic/ischemic white matter injury is also populated with immature OLs (Kinney and Back, 1998), this age was chosen to deliver the hypoxic/ischemic insult. […] Injury was limited to the white matter without evidence of injury to cortical neurons. […] Ipsilateral injury included the loss of MBP expression in the OL processes extending into the cortex and decreased thickness of the periventricular white matter and external capsule in four of nine rats.
P7 rat pups underwent unilateral carotid ligation followed by hypoxia (6% O2 for one hour). Following hypoxia, littermates were treated with either topiramate (30 mg/kg, i.p., q12 h, 4 doses, n=12) or vehicle (n=12). 48 hours after hypoxia/ischemia, pups were evaluated with in situ end labeling (ISEL) for the presence of cell death in white matter. Briefly, coronal sections were labeled for the presence of single-stranded DNA fragments as a sensitive indicator of cell death. ISEL positive cells in white matter ipsilateral to the ligation in each of three coronal sections (at the level of the anterior hippocampus, mid-dorsal hippocampus, and posterior dorsal hippocampus) were counted and a mean was taken for each rat.
96 hours post-ischemia/hypoxia, pups were evaluated with ICC for loss of MBP expression ipsilateral to the ligation as compared to the contralateral side. Coronal sections were evaluated by immunocytochemistry with a monoclonal against MBP, and detected with fluorescent secondary antibody. Three sections were evaluated for each rat: the anterior hippocampus, the mid-dorsal hippocampus, and the posterior dorsal hippocampus. Lesion severity was assigned a value on a scale from 0 to 3 as follows: 0 if ipsilateral and colateral hemispheres were similar; 1 if ipsilateral loss was limited to cortical processes; 2, if loss of staining included thinning of the periventricular white matter; and 3 if white matter tracts included a full thickness loss of staining in the capsule. A mean severity score was obtained for immature and mature OL markers in each rat.
Litters of male Long Evans rat pups (Charles River Laboratories, Wilmington, Mass.) were raised with dams in a temperature-controlled environment with 12 hour light-dark cycles. Pups underwent carotid ligation and hypoxia at post-natal-day (P)7. They were recovered on a thermal blanket at 33-34° C. (baseline temperature for P7 rats) and returned to their dam for 48-96 hours prior to sacrifice. Treated pups were given intra-peritoneal (i.p.) injections of 0.1 cc solutions of topiramate, NBQX or vehicle every 12 hours for 48 hours at P7 and P8 for treatment, control and normal development studies.
Hypoxic/ischemic injury was generated in rats by unilateral carotid ligation followed by hypoxia (6% for 1 hour). […] The methods used in this example are described in Follett et al (2000) J. Neurosci. 20:9235-9241, incorporated by reference herein.
Briefly, rats were anesthetized with ether and the proximal internal carotid artery was isolated from the sympathetic chain and ligated. Animals requiring prolonged sedation due to technical issues were removed from the study. The animals were recovered one hour, then placed in a sealed chamber infused with nitrogen to a level of 6% O2, with body temperature maintained at 33-34° C. throughout. […] Pups were allowed a 1-2 hour period of recovery after hypoxia then returned to their dam. Pups were randomized into treatment and control groups by weight to insure no size variation existed between the subjects and controls to start. Following hypoxia animals in the treatment group were given i.p. injections of topirmate (10, 30 or 50 mg/kg in 0.1 cc PBS) or equivalent volume of saline repeat treatment every 12 hours for 48 hours. […]

[3] = P7 rats, topiramate 30 mg/kg i.p. q12 h 4 doses, 96 hours

Row | Compound | protection against kainate-induced cell death at 50 μM ([1]; 50 μM NBQX, 24 hr) | concentration giving significant reduction of kainate-induced cell death [1] [µM] | white matter injury, semiquantitative lesion severity by MBP expression ([2]; P7 rats, NBQX post-treatment at termination of hypoxia, 96 hours after insult, vs vehicle-treated controls, p<0.001) | white matter injury, semiquantitative lesion severity by O1 expression ([2]; P7 rats, NBQX post-treatment at termination of hypoxia, 96 hours after insult, vs vehicle-treated controls, p<0.005) | treated pups with no detectable injury ([2]; P7 rats, NBQX post-treatment, 96 hours after insult) | rectal temperature, treated vs untreated groups ([2]; P7 rats, NBQX treatment initiated after hypoxia) | cell survival ([1]; topiramate 50-100 μM, 24 hr) | protective effect at the lower dose (MBP injury) ([2]; Example 3, 10 mg/kg per dose (40 mg/kg divided over 48 hours)) | lesion severity, blinded semi-quantitative analysis of MBP expression ([2]; Example 3, 30 mg/kg topiramate every 12 hours for 48 hours, 96 hours after hypoxia, vs vehicle p<0.01) | effect at the higher dose (MBP injury) ([2]; Example 3, 50 mg/kg per dose (200 mg/kg divided over 48 hours)) | body temperature by rectal probe, treatment vs control groups ([2]; Example 3, P7 rats, monitored at each stage) | dose with maximal protective effect (MBP injury) ([2]; Example 3, partial dose response 10, 30, 50 mg/kg every 12 hours for 48 hours) [mg/kg/dose] | pups with less than 20 ISEL positive cells per section in subcortical white matter ipsilateral to the ligation ([2]; P7 rats, topiramate 30 mg/kg i.p. q12 h 4 doses, 48 hours after hypoxia/ischemia) | white matter cell death (ISEL positive cells) ([2]; P7 rats, topiramate 30 mg/kg i.p. q12 h 4 doses, 48 hours after hypoxia/ischemia, p<0.03) | pups with no appreciable loss of MBP expression ipsilateral to the carotid ligation [2, 3] | pups with severe injury (MBP loss) [2, 3] | loss of MBP expression ipsilateral to the ligation ([2]; P7 rats, topiramate 30 mg/kg i.p. q12 h 4 doses, 96 hours post-ischemia/hypoxia, p=0.04)
1 | NS(=O)(=O)c1cccc2c1c([N+](=O)[O-])cc1nc(O)c(O)nc12 [NBQX, 2,3-Dioxo-6-nitro-1,2,3,4-tetrahydrobenzo[f]quinoxaline-7-sulphonamide] | fully protective | ≥ 10 | significant attenuation of white matter injury | significant attenuation of white matter injury | three of seven | No difference in rectal temperatures | – | – | – | – | – | – | – | – | – | – | –
2 | CC1(C)O[C@@H]2[C@@H](CO[C@@]3(COS(N)(=O)=O)OC(C)(C)O[C@@H]23)O1 [topiramate] | – | ≥ 30 | – | – | – | – | approximately 70% | less efficacy | significant attenuation of lesion severity | question of possible toxicity | did not differ between treatment and control groups | 30 | Five out of six | significant decreases in white matter cell death | two out of five | None of the topiramate treated pups exhibited severe injury | significant attenuation of MBP loss

— patent US6921775B2, “Methods for modulating brain damage” (Children's Medical Center Corporation, priority 2001, dated 2005)
